Source: ChEMBL document CHEMBL3885881, “DrugMatrix”

Species on record: Rattus norvegicus
Assay: DrugMatrix - Regimen: Daily Repeat
Type: toxicity, organism-based, Sprague-Dawley
Design: regimen Daily Repeat, gender Male, age 6-8 weeks
Conditions: in vivo, po, route oral GAVAGE, […]; for ABSOLUTE BASOPHIL / ABSOLUTE EOSINOPHIL / ABSOLUTE LYMPHOCYTE / ABSOLUTE MONOCYTE / ABSOLUTE SEGMENTED NEUTROPHIL / BASOPHIL / EOSINOPHIL / ERYTHROCYTE COUNT / HEMATOCRIT / HEMOGLOBIN / LEUKOCYTE COUNT / LYMPHOCYTE / MEAN CORPUSCULAR HEMOGLOBIN / MEAN CORPUSCULAR HEMOGLOBIN CONCENTRATION / MEAN CORPUSCULAR VOLUME / MONOCYTE / NEUTROPHIL / NUCLEATED RED BLOOD CELLS / PLATELET COUNT: tissue Blood; for ALANINE AMINOTRANSFERASE / ALBUMIN / ALKALINE PHOSPHATASE / ASPARTATE AMINOTRANSFERASE / BLOOD UREA NITROGEN / CARBON DIOXIDE / CHLORIDE / CHOLESTEROL / CREATINE PHOSPHOKINASE / CREATININE / GLUCOSE / LACTATE DEHYDROGENASE / LIPASE / PHOSPHORUS / POTASSIUM / SODIUM / TOTAL BILIRUBIN / TOTAL PROTEIN / URIC ACID: tissue Plasma
[1] = 0 mg/kg, 72 h, dose level Control, time 3 day
[2] = 0 mg/kg, 120 h, dose level Control, time 5 day
[3] = 50 mg/kg, 72 h, dose level Low, time 3 day

`Oc1ncnc2[nH]ncc12` [ALLOPURINOL] was tested, and the “ABSOLUTE BASOPHIL” value [1] was 0 CELLS/uL, the “ABSOLUTE EOSINOPHIL” value [1] was 0 CELLS/uL and the “ABSOLUTE LYMPHOCYTE” value [1] was 14687.67 CELLS/uL. The “ABSOLUTE MONOCYTE” value [1] was 164 CELLS/uL, the “ABSOLUTE SEGMENTED NEUTROPHIL” value [1] was 1748.33 CELLS/uL and the BASOPHIL [1] was 0%. The EOSINOPHIL [1] was 0%, the “ERYTHROCYTE COUNT” value [1] was 5.51 x10E6/uL and the HEMATOCRIT [1] was 33.68%. For the same compound, the HEMOGLOBIN [1] was 13.4 G/DL, the “LEUKOCYTE COUNT” value [1] was 16.6 x10E3/uL and the LYMPHOCYTE [1] was 88.83%. The “MEAN CORPUSCULAR HEMOGLOBIN” value [1] was 24.47 pg, the “MEAN CORPUSCULAR HEMOGLOBIN CONCENTRATION” value [1] was 39.82 G/DL and the “MEAN CORPUSCULAR VOLUME” value [1] was 61.23 fL. For the same compound, the MONOCYTE [1] was 0.83%, the NEUTROPHIL [1] was 10.33% and the “NUCLEATED RED BLOOD CELLS” value [1] was 0 /100WBC. The “PLATELET COUNT” value [1] was 1329.67 x10E3/uL, the “ALANINE AMINOTRANSFERASE” value [1] was 61.33 u/L and the ALBUMIN [1] was 4.18 G/DL. The “ALKALINE PHOSPHATASE” value [1] was 332.5 u/L, the “ASPARTATE AMINOTRANSFERASE” value [1] was 98.33 u/L and the “BLOOD UREA NITROGEN” value [1] was 15.83 mg/dL. For the same compound, the “CARBON DIOXIDE” value [1] was 27.83 mmol/L, the CHLORIDE [1] was 100 MEQ/L and the CHOLESTEROL [1] was 76.17 mg/dL. The “CREATINE PHOSPHOKINASE” value [1] was 729.17 u/L, the CREATININE [1] was 0.21 mg/dL and the GLUCOSE [1] was 151.83 mg/dL. For the same compound, the “LACTATE DEHYDROGENASE” value [1] was 484.67 u/L, the LIPASE [1] was 10 u/L and the PHOSPHORUS [1] was 11.3 mg/dL. For the same compound, the POTASSIUM [1] was 6.1 MEQ/L, the SODIUM [1] was 142.9 MEQ/L and the “TOTAL BILIRUBIN” value [1] was 0.23 mg/dL. For the same compound, the “TOTAL PROTEIN” value [1] was 5.68 G/DL, the “URIC ACID” value [1] was 1.75 mg/dL and the “ABSOLUTE BASOPHIL” value [2] was 0 CELLS/uL. For the same compound, the “ABSOLUTE EOSINOPHIL” value [2] was 58.67 CELLS/uL, the “ABSOLUTE LYMPHOCYTE” value [2] was 15950.83 CELLS/uL and the “ABSOLUTE MONOCYTE” value [2] was 172.5 CELLS/uL. For the same compound, the “ABSOLUTE SEGMENTED NEUTROPHIL” value [2] was 2551.33 CELLS/uL, the BASOPHIL [2] was 0% and the EOSINOPHIL [2] was 0.33%. The “ERYTHROCYTE COUNT” value [2] was 5.5 x10E6/uL, the HEMATOCRIT [2] was 34.05% and the HEMOGLOBIN [2] was 13.42 G/DL. For the same compound, the “LEUKOCYTE COUNT” value [2] was 18.73 x10E3/uL, the LYMPHOCYTE [2] was 84.5% and the “MEAN CORPUSCULAR HEMOGLOBIN” value [2] was 24.42 pg. The “MEAN CORPUSCULAR HEMOGLOBIN CONCENTRATION” value [2] was 39.42 G/DL, the “MEAN CORPUSCULAR VOLUME” value [2] was 61.97 fL and the MONOCYTE [2] was 1%. The NEUTROPHIL [2] was 14.17%, the “NUCLEATED RED BLOOD CELLS” value [2] was 0.33 /100WBC and the “PLATELET COUNT” value [2] was 1143.17 x10E3/uL. For the same compound, the “ALANINE AMINOTRANSFERASE” value [2] was 57 u/L, the ALBUMIN [2] was 4.17 G/DL and the “ALKALINE PHOSPHATASE” value [2] was 347.33 u/L. The “ASPARTATE AMINOTRANSFERASE” value [2] was 93.67 u/L, the “BLOOD UREA NITROGEN” value [2] was 15.67 mg/dL and the “CARBON DIOXIDE” value [2] was 27.17 mmol/L. The CHLORIDE [2] was 104.33 MEQ/L, the CHOLESTEROL [2] was 69.5 mg/dL and the “CREATINE PHOSPHOKINASE” value [2] was 317.17 u/L. The CREATININE [2] was 0.2 mg/dL, the GLUCOSE [2] was 162.33 mg/dL and the “LACTATE DEHYDROGENASE” value [2] was 408.67 u/L. For the same compound, the LIPASE [2] was 10.17 u/L, the PHOSPHORUS [2] was 11.08 mg/dL and the POTASSIUM [2] was 6.36 MEQ/L. The SODIUM [2] was 146.07 MEQ/L, the “TOTAL BILIRUBIN” value [2] was 0.22 mg/dL and the “TOTAL PROTEIN” value [2] was 5.92 G/DL. The “URIC ACID” value [2] was 1.47 mg/dL, the “ABSOLUTE BASOPHIL” value [3] was 0 CELLS/uL and the “ABSOLUTE EOSINOPHIL” value [3] was 127 CELLS/uL. The “ABSOLUTE LYMPHOCYTE” value [3] was 14701 CELLS/uL, the “ABSOLUTE MONOCYTE” value [3] was 340.67 CELLS/uL and the “ABSOLUTE SEGMENTED NEUTROPHIL” value [3] was 1864.67 CELLS/uL. For the same compound, the BASOPHIL [3] was 0%, the EOSINOPHIL [3] was 1% and the “ERYTHROCYTE COUNT” value [3] was 5.8 x10E6/uL. For the same compound, the HEMATOCRIT [3] was 35.57%, the HEMOGLOBIN [3] was 14.13 G/DL and the “LEUKOCYTE COUNT” value [3] was 17.03 x10E3/uL. The LYMPHOCYTE [3] was 86.33%, the “MEAN CORPUSCULAR HEMOGLOBIN” value [3] was 24.4 pg and the “MEAN CORPUSCULAR HEMOGLOBIN CONCENTRATION” value [3] was 39.77 G/DL. The “MEAN CORPUSCULAR VOLUME” value [3] was 61.43 fL, the MONOCYTE [3] was 2% and the NEUTROPHIL [3] was 10.67%. For the same compound, the “NUCLEATED RED BLOOD CELLS” value [3] was 0 /100WBC, the “PLATELET COUNT” value [3] was 1335 x10E3/uL and the “ALANINE AMINOTRANSFERASE” value [3] was 47.67 u/L. The ALBUMIN [3] was 3.9 G/DL, the “ALKALINE PHOSPHATASE” value [3] was 391.33 u/L and the “ASPARTATE AMINOTRANSFERASE” value [3] was 101 u/L. The “BLOOD UREA NITROGEN” value [3] was 54.33 mg/dL, the “CARBON DIOXIDE” value [3] was 31.33 mmol/L and the CHLORIDE [3] was 101.67 MEQ/L. The CHOLESTEROL [3] was 88.33 mg/dL, the “CREATINE PHOSPHOKINASE” value [3] was 732.33 u/L and the CREATININE [3] was 1.13 mg/dL. The GLUCOSE [3] was 142 mg/dL, the “LACTATE DEHYDROGENASE” value [3] was 354.67 u/L and the LIPASE [3] was 10 u/L. It also gave a PHOSPHORUS [3] of 10.1 mg/dL, a POTASSIUM [3] of 6.99 MEQ/L and an SODIUM [3] of 146.8 MEQ/L. For the same compound, the “TOTAL BILIRUBIN” value [3] was 0.2 mg/dL, the “TOTAL PROTEIN” value [3] was 5.93 G/DL and the “URIC ACID” value [3] was 0.2 mg/dL.
